In the Deep4Chem optical property database one finds emission maximum data, which are given here for 45 compounds.

The data set is described as follows: solvent given as SMILES.

Each structure is given as a SMILES string. Several values for one entry are separate records, joined by “and”; a condition that tells them apart may be missing. Equal values may be shown once.

Regarding `COC(=O)C(Cc1ccc2oc(-c3ccc(-n4c5ccccc5c5ccccc54)cc3)nc2c1)NC(=O)OC(C)(C)C` (configuration not stated), the emission maximum is, setting by setting: (in C1CCCCC1) 362 nm; (in C1CCOC1) 429 nm; (in C1COCCO1) 400 nm; (in CC1CCCO1) 404.01 nm; (in CC#N) 447.01 nm; (in CC(C)(C)O) 421 nm. Besides, the emission maximum runs as follows: (in CC(C)=O) 432.99 nm; (in CC(C)CC(C)(C)C) 361.01 nm; (in CC(C)O) 431 nm; (in CC(O)CO) 455 nm; (in CCCCCCCO) 421.99 nm; (in CCCCCCO) 424 nm. The emission maximum reads like this: (in CCCCCO) 409 nm; (in CCCCO) 430 nm; (in CCO) 445 nm; (in CCOC(C)=O) 409 nm; (in CCOCC) 402.32 nm; (in CN(C)C=O) 438.02 nm. Moreover, the emission maximum is reported as 465.98 nm (in CO), 445.99 nm (in CS(C)=O), 391.01 nm (in Cc1ccccc1) and 470.01 nm (in OCCO).

`CN(C)c1ccc(C(=O)Nc2cccc(Br)c2)cc1` had an emission maximum (in C1CCCCC1) of 338 nm, an emission maximum (in C1CCOC1) of 455 nm, an emission maximum (in CC#N) of 496 nm and an emission maximum (in CCOCC) of 445 nm.

`Oc1c(-c2ccco2)cccc1-c1nc2ccccc2s1` had an emission maximum (in CCO) of 575 nm, an emission maximum (in ClCCl) of 577 nm and an emission maximum (in O) of 569 nm.

With `COc1ccc2cc(/C=C/c3ccccc3)c(=O)oc2c1`, the emission maximum (in CC#N) was 464 nm.

In the case of `COc1ccc(-c2ccc(-c3ccc(OC)cc3)cc2)cc1`, for the setting “in C1CCCCC1”, the emission maximum is 360 nm.

Take `CCn1c2ccccc2c2cc(-c3cc(-c4ccc5c(c4)c4ccccc4n5CC)nc(C#N)n3)ccc21`: the emission maximum runs as follows: (in C1CCOC1) 427 nm; (in CCOC(C)=O) 422 nm; (in CN(C)C=O) 455 nm; (in Cc1ccccc1) 404 nm; (in ClCCl) 435 nm.

Where the note is “in ClC(Cl)Cl”, `C(#Cc1ccc(C#Cc2ccccc2)cc1)c1ccccc1` showed an emission maximum of 348 nm.

Turning to `Cc1ccc(-c2c3nc(c(-c4ccc(C)cc4)c4ccc([nH]4)c(-c4ccc(OC(=O)C(C)c5ccc(Oc6ccccc6)cc5)cc4)c4nc(c(-c5ccc(C)cc5)c5ccc2[nH]5)C=C4)C=C3)cc1` (configuration not stated), where the note is “in ClCCl”, the emission maximum stood at 653 nm.

As to `CCOC(=O)CCOc1ccc(C(c2c(C)[nH]c3ccccc23)c2c(C)[nH]c3ccccc23)cc1`, the emission maximum is, setting by setting: (in C1CCCCC1) 328 nm; (in CC#N) 348 nm; (in CO) 349 nm; (in O) 350 nm.

`c1ccc(B2Nc3cc4c(cc3-c3sccc32)NB(c2ccccc2)c2ccsc2-4)cc1` returned an emission maximum (in ClCCl) of 412 nm.

`O=c1oc2ccc(Cl)cc2cc1-c1cc2cc(Cl)ccc2o1`: the emission maximum worked out at 431 nm (in CC#N); 429 nm (in CCOC(C)=O); 488 nm (in CS(C)=O); 433 nm (in Cc1ccccc1); 473 nm (in O).

The compound `N#Cc1c(-n2c3ccccc3c3ccccc32)cc(N2c3ccccc3C(c3ccccc3)(c3ccccc3)c3ccccc32)cc1-n1c2ccccc2c2ccccc21` displayed an emission maximum (in Cc1ccccc1) of 471 nm.

Take `COc1ccc(-c2ccc3c(c2)c2cc(-c4ccc(OC)cc4)ccc2n3-c2ccc(C(=O)c3ccc4sc5ccccc5c4c3)cc2)cc1`: the emission maximum is 460.87 nm (in Cc1ccccc1) and 462 nm (in c1cc(-n2c3ccccc3c3ccccc32)cc(-n2c3ccccc3c3ccccc32)c1).

As to `CCC1(CC)c2cc(N(C)C)ccc2-c2ccc(C(F)(F)F)cc21`, the emission maximum runs as follows: (in C1CCCCC1) 360 nm; (in CC#N) 337 nm; (in CCO) 388 nm; (in CCOCC) 373 nm; (in CS(C)=O) 414 nm; (in ClCCl) 387 nm. Under “in c1ccccc1”, this compound displayed an emission maximum of 374 nm.

Compound `O=C1c2ccccc2-c2nc3c4ccccc4c4ccccc4c3n21` yielded an emission maximum (in ClCCl) of 616 nm.

Under “in ClC(Cl)Cl”, `N#CC1=CC(c2ccccc2)=CC(C#N)=P1(c1ccccc1)c1ccccc1` yielded an emission maximum of 525 nm.

With `O=C1c2cc(-n3c4ccccc4c4ccccc43)ccc2S(=O)(=O)c2ccc(-n3c4ccccc4c4ccccc43)cc21`, the emission maximum is, setting by setting: (in C1CCOC1) 592 nm; (in CCCCCC) 484 nm; (in Cc1ccccc1) 546 nm; (in ClC(Cl)Cl) 606 nm; (in ClCCl) 614 nm.

`c1ccc(-c2nc(-c3ccccn3)[se]c2N(c2ccccc2)c2ccccc2)cc1` had an emission maximum (in ClC(Cl)Cl) of 498 nm.

On to `C/C=C/C1=NC(=C\c2ccc(O)cc2)/C(=O)N1C`, for which the emission maximum turned out to be 472 nm (in ClC(Cl)Cl) and 460 nm (in O).

Turning to `COc1ccc2c(c1)CCc1c(-c3ccccc3)c3n(c1-2)[B-](F)(F)[N+]1=c2ccc4ccccc4c2=C(c2ccccc2)C1=N3`, the emission maximum (in ClC(Cl)Cl) came to 730 nm.

Under “in ClCCl”, `C(#Cc1c2ccccc2c(-c2ccccc2)c2cc3ccccc3cc12)c1ccccc1` yielded an emission maximum of 541 nm.

Take `CN(c1ccccc1)c1ccc(/C=C/c2ccccc2)cc1`: the emission maximum is, setting by setting: (in CC#N) 450 nm; (in CCCCCC) 385 nm.

Where the note is “in ClC(Cl)Cl”, `O[Si](c1c2ccccc2cc2ccccc12)(c1c2ccccc2cc2ccccc12)c1c2ccccc2cc2ccccc12` registered an emission maximum of 434 nm.

`CCCCCCCCc1ccc(-c2c3cc(-c4cc(CCCCCCCC)c(-c5ccc(-c6sc(/C=C7\SC(N8CCCCC8)=NC7=O)cc6CCCCCCCC)s5)s4)sc3c(-c3ccc(CCCCCCCC)s3)c3cc(-c4cc(CCCCCCCC)c(-c5ccc(-c6sc(/C=C7\SC(N8CCCCC8)=NC7=O)cc6CCCCCCCC)s5)s4)sc23)s1`: the emission maximum (in ClC(Cl)Cl) came to 576 nm.

Take `O=S(=O)([O-])c1ccc(/C=C/c2ccc(-c3nnc(-c4ccc(/C=C/c5ccc(S(=O)(=O)[O-])cc5S(=O)(=O)[O-])cc4)o3)cc2)c(S(=O)(=O)[O-])c1`: the emission maximum turned out to be 416 nm (in C1CCOC1), 415 nm (in CC(C)=O) and 430 nm (in CN(C)C=O).

`Cc1ccc(C2=C3C=CC(Nc4ccccc4)=[N+]3[B-](F)(F)n3c(Nc4ccccc4)ccc32)cc1` returned an emission maximum (in CO) of 613 nm.

Regarding `Fc1ccc2c(c1)sc1nc(-c3ccccc3)sc12`, under “in CS(C)=O”, the emission maximum is recorded as 407 nm.

For the setting “in ClCCl”, `CCOC(=O)C1=C(C(=O)OCC)C2(c3cc(Cl)ccc3-c3ccc(Cl)cc32)C2(/C=C/c3ccccc3)c3cc(OC)c(OC)cc3CCN12` (configuration not stated) returned an emission maximum of 456 nm.

Where the note is “in CCO”, `CCOC(=O)c1cc(C(=O)OCC)c2cc(OC)ccc2n1` came in with an emission maximum of 441 nm.

As for `CCCCN1c2ccccc2Sc2cc(/C=C\c3cc(=O)oc4cc(C)ccc34)ccc21`, the emission maximum (in ClC(Cl)Cl) is given as 632 nm.

`N#C/C(=C\c1ccc(/C=C/c2ccc(N(c3ccccc3)c3ccccc3)cc2)s1)C(=O)O` had an emission maximum (in ClCCl) of 676 nm.

For the setting “in C1CCOC1”, `Cc1cc(C2=C(c3cc(C)sc3C)P(=O)(c3ccccc3)c3ccccc32)c(C)s1` (configuration not stated) showed an emission maximum of 468 nm.

With `CC1(C)c2ccccc2N(c2ccc3c(c2)C(C)(C)c2cc(N4c5ccccc5C(C)(C)c5ccccc54)ccc2S3(=O)=O)c2ccccc21`, the emission maximum runs as follows: (in C1CCOC1) 473.1 nm; (in CC#N) 526.32 nm; (in Cc1ccccc1) 451.46 nm and 453.62 nm; (in ClCCl) 504 nm.

Regarding `Cc1ccc(-c2cnc3nn4ccccc4c3n2)cc1`, the emission maximum (in C1CCOC1) was found to be 450 nm.

Consider `CC(C)(C)C#Cc1ccc2c3cccc4cccc(c5cccc1c52)c43`, for which, where the note is “in C1CCCCC1”, the emission maximum is listed as 459.88 nm.

As for `Cc1cccc2nc(-c3ccc(-c4cc(=O)cc(-c5ccccc5)o4)cc3)c(NC3CCCCC3)n12`, the emission maximum (in ClCCl) is 506 nm.

On to `COc1ccccc1-n1nc(C#N)c(N2CCCC2)n1`, for which the emission maximum (in CC#N) is listed as 418 nm.

Regarding `c1ccc(-c2nc(-c3ccccc3)nc(-c3ccc(-n4c5ccccc5c5cc6c(cc54)C(c4ccccc4)(c4ccccc4)c4ccccc4-6)cc3)n2)cc1`, the emission maximum came out at 494.27 nm (in C1CCOC1); 400.55 nm (in CCCCCC); 442 nm (in Cc1ccccc1); 519.15 nm (in ClCCl); 471 nm (in O=P(c1ccccc1)(c1ccccc1)c1ccccc1Oc1ccccc1P(=O)(c1ccccc1)c1ccccc1).

With `C#Cc1ccc2ccc3cccc4ccc1c2c34`, the emission maximum is reported as 383 nm (in C1CCCCC1), 384 nm (in CC#N), 383 nm (in CO) and 384 nm (in ClCCl).

Regarding `Oc1ccc2ccccc2c1/C=N/C1CCCCC1/N=C/c1c(O)ccc2ccccc12` (configuration not stated), the emission maximum (in CC#N) is 471 nm.

Regarding `CCCCCCCCOc1ccc(C2=C3C(C)=CC(C)=[N+]3[B-](F)(F)n3c(C)cc(C)c32)cc1`, the emission maximum (in ClCCl) was determined as 513 nm.

Consider `Cc1ccc2nc3c(=O)[nH]c(=O)[nH]c3nc2c1C`, for which the emission maximum (in CC#N) came out at 461 nm.

Take `CCNc1cc2oc(=O)cc(C)c2cc1C`: where the note is “in CC#N”, the emission maximum amounted to 420 nm.

In the case of `O=c1c2ccccc2oc2cc(N3c4ccccc4C4(c5ccccc5Oc5ccccc54)c4ccccc43)ccc12`, for the setting “in Cc1ccccc1”, the emission maximum was determined as 472 nm.

For the setting “in ClCCl”, `CCOC(=O)c1c(-c2c(Cl)c3cc(C)ccc3oc2=O)nn(-c2cccc(Cl)c2)c1C(=O)OCC` came in with an emission maximum of 420 nm.
